Here are results for 4 compounds from patent US4847302A, “Use of certain compounds in livestock food as growth promotants for better feed utilization and improved carcass composition” (Merck & Co., Inc., priority 1988, dated 1989).

Like-named read-outs stand apart in the source and are kept apart here.

In test [1] the test system is Isolated Swine Adipocytes. Nature of the test: Stimulation of lipolysis (glycerol production) in isolated swine adipocytes. The format is cell-based. Conditions: for activation at 0.01 µM / activation at 0.05 µM / activation at 0.25 µM: Sus scrofa, Adipocyte, 2 h, read-out: percent increase compared to control, glycerol production. On the procedure:
(§1) Fat was collected from freshly killed animals as follows: epididymal and perirenal fat from 150 to 200 g male rates; perirenal fat from 20 to 25 kg whether lambs, and perirenal and omental fat from 35 to 50 kg gilts. Immediately after collection, fat was placed in a siliconized beaker (all glassware was siliconized) containing Krebs-Ringer bicarbonate solution (KRB; pH 7.4) at 37° C. Fat was transferred to a clean beaker and finely chopped with scissors. Chopped fat was then used as such (whole adipose preparation) or treated with collagenase (isolated adipocytes).
(§2) Chopped fat was placed in a shaker containing 70 ml cell dispersion medium (CDM; 5 mM glucose, 0.1% collagenase, 4% bovine serum albumin (BSA), in KRB) and incubated at 37° C. for 1 hour with gentle shaking. Fat was then filtered to remove clumps and washed 4 times with washing medium (WM; 2.5 mM glucose, 1% BSA, in KRB) and 1 time with final suspension medium (FSM; 2.5 mM glucose, 2% essentially fatty acid free BSA, in KRB). Isolated adipocytes were then resuspended in the required amount of FSM (1 ml/flask, 3 flasks/treatment).
(§3) Whole adipose tissue from the rat (0.3 ml) or isolated adipocytes from sheep or swine (1 ml) were placed in plastic scintillation vials containing FSM (1.7 or 1 ml, respectively) and test compounds, and incubated at 37° C. for 2 hours. […] Isoproterenol, at the same concentrations, was used as a positive control. After incubation, media was removed and assayed for glycerol by a fluorometric modification of the method of Wieland (1974. Glycerol UV-method. pp. 1404. In: Bergmeyer (Ed.) Methods of Enzymatic Analysis. Verlag Chemie Weinham, Academic Press, New York).

Another test deals with Rat Adipose Tissue. As to the kind of experiment: Stimulation of lipolysis (glycerol production) in chopped rat adipose tissue. Type of test: cell-based. The note with it: for activation at 0.01 µM / activation at 0.05 µM / activation at 0.25 µM: Rattus norvegicus, 2 h, read-out: percent increase compared to control, glycerol production. Here is the method:
as §1
Whole adipose tissue from the rat (0.3 ml) or isolated adipocytes from sheep or swine (1 ml) were placed in plastic scintillation vials containing FSM (1.7 or 1 ml, respectively) and test compounds, and incubated at 37° C. for 2 hours. […] Isoproterenol, at the same concentrations, was used as a positive control. After incubation, media was removed and assayed for glycerol by a fluorometric modification of the method of Wieland (1974. Glycerol UV-method. pp. 1404. In: Bergmeyer (Ed.) Methods of Enzymatic Analysis. Verlag Chemie Weinham, Academic Press, New York). […]

For test [2], the system named is Isolated Chicken Hepatocytes. As to the kind of experiment: Inhibition of lipogenesis (14C acetate incorporation) in isolated chicken hepatocytes. Type of test: cell-based. Conditions: for percent change compared to control, 14C acetate incorporation in fatty acids: 120 min; for inhibition at 0.01 µM / inhibition at 0.05 µM / inhibition at 0.25 µM: Gallus gallus, Hepatocyte, 2 h, read-out: percent change compared to control, 14C acetate incorporation in fatty acids. On the procedure:
Determination of anti-lipogenic activity in hepatocytes
Hepatocytes were isolated from chicken liver using the procedure for adipocytes and incubated for 2 hours at 37° C. in the presence of ^14 C acetate and test compounds. […] Isoproterenol, at the same concentrations, was used as a positive control. After incubation, 8 ml Doles reagent (isopropanol:hexane:H2 SO4, 40:10:1) was added and incubation vials were shaken at room temperature for 30 minutes. Vial contents were poured into 50 ml screw-cap tubes. Vials were then rinsed with 6 ml hexane which was poured into the appropriate 50 ml tube. Tubes were shaken by hand, 10 ml H2 O was added, and tubes were shaken again. After phase separation, 2 ml of the upper (hexane) phase was removed to scintillation vials. Hexane was evaporated by a gentle air flow and the remaining lipids were resuspended in 10 ml Scinti Verse II. ^14 C was counted in a Packard liquid scintillation counter. Data are reported as CPM of ^14 C acetate incorporated into total lipids.

Test [3] deals with Isolated Ovine Adipocytes. As to the kind of experiment: Stimulation of lipolysis (glycerol production) in isolated ovine adipocytes. The note with it: for activation at 0.05 µM / activation at 0.25 µM / activation at 0.01 µM: Ovis aries, Adipocyte, 2 h, read-out: percent increase compared to control, glycerol production. The format is cell-based, sheep. Here is the method: as §1, §2, §3

The nature of test [4]: In vivo testing in rats: growth, feed conversion and carcass composition. More on the design: species or system rat (male Charles River CD). The note with it: in diet, dose equivalent to 20 ppm clenbuterol (clenbuterol: 10). An excerpt:
Eighty intact, male Charles River CD rats, 75-90 g, were housed and maintained on rat chow and water ad libitum. After four days acclimation ten rats per group were randomized by weight to treatment and pen. Compounds to be tested were premixed and added to ground rat chow using doses equivalent to 20 ppm of clenbuterol on a molecular weight basis. It had previously been determined 10 ppm of clenbuterol was the minimum dose needed to give maximum improvements in gain and feed conversion. Therefore, the results of any compound tested should cause responses similar to clenbuterol if the compound has half or more the activity of clenbuterol.

`CC(C)N[C@H]1CCc2c(ccc(O)c2CO)[C@@H]1O.Cl` [VIII]: the “percent increase compared to control, glycerol production” value (shortened to “percent increase compared to control”) in test [1] (Test 1, 0.01 μM) turned out to be 13%; in test [1] (Test 1, 0.05 μM) it was 147%; in test [1] (Test 1, 0.25 μM) it was 180%; in test [1] (Test 2, 0.01 μM), 61%; in test [1] (Test 2, 0.05 μM), 59%; in test [1] (Test 2, 0.25 μM), 460%. Further, the “percent increase compared to control” value is recorded as 19% in the test with Rat Adipose Tissue (Test 1, 0.01 μM); 26% with Rat Adipose Tissue (Test 1, 0.05 μM); 21% in the test on Rat Adipose Tissue (Test 1, 0.25 μM); -7% in the test with Rat Adipose Tissue (Test 2, 0.01 μM); 4% in the test with Rat Adipose Tissue (Test 2, 0.05 μM); 7% with Rat Adipose Tissue (Test 2, 0.25 μM). Further, the “percent increase compared to control” value was found to be 135% in test [3] (Test 1, 0.01 μM); 445% in test [3] (Test 1, 0.05 μM); 565% in test [3] (Test 1, 0.25 μM); 71% in test [3] (Test 2, 0.01 μM); 1143% in test [3] (Test 2, 0.05 μM); 1800% in test [3] (Test 2, 0.25 μM). In addition, the “percent change compared to control, 14C acetate incorporation in fatty acids” value in test [2] (Test 2, 0.01 μM) is on record as 26%; in test [2] (Test 2, 0.05 μM), -9%; in test [2] (Test 2, 0.25 μM), -34%. Besides, the “Feed Conversion” value in test [4] (Test 1, control 2.55) was determined as 2.41. Besides, the Gain in test [4] (Test 1, control 7.3) was 8.1 g/day. For the same compound, the “Feed Intake” value in test [4] (Test 1, control 18.6) is 19.5 g/day. In addition, the Weight in test [4] (Test 1, control 191.8) is 202.6 g. In addition, the “Carcass Composition % of Change over Control, Fat” value in test [4] (Test 1) was -6.1%. Also, the “Carcass Composition % of Change over Control, Protein” value in test [4] (Test 1) turned out to be 6.4%.
In the case of `Cn1c(=O)c2c(ncn2CCCNCC(O)c2cc(O)cc(O)c2)n(C)c1=O` (centres unmarked) [VI, Reproterol], the activation at 0.01 µM in test [1] (Test 1, 0.01 μM) is 20%; in test [1] (Test 2, 0.01 μM), 8%; in the test with Rat Adipose Tissue (Test 1, 0.01 μM) it was 63%; in the test on Rat Adipose Tissue (Test 2, 0.01 μM) it was 13%; in test [3] (Test 2, 0.01 μM), -14%. For the same compound, the activation at 0.05 µM in test [1] (Test 1, 0.05 μM) was -7%; in test [1] (Test 2, 0.05 μM), 21%; in the test with Rat Adipose Tissue (Test 1, 0.05 μM) it was 86%; in the test with Rat Adipose Tissue (Test 2, 0.05 μM) it was 16%; in test [3] (Test 1, 0.05 μM) it was 130%; in test [3] (Test 2, 0.05 μM), 129%. The activation at 0.25 µM in test [1] (Test 1, 0.25 μM) worked out at 0%; in test [1] (Test 2, 0.25 μM), 3%; with Rat Adipose Tissue (Test 1, 0.25 μM) it was 86%; in the test with Rat Adipose Tissue (Test 2, 0.25 μM), 13%; in test [3] (Test 1, 0.25 μM), 465%; in test [3] (Test 2, 0.25 μM), 700%. Also, the inhibition at 0.01 µM in test [2] (Test 1, 0.01 μM) was 0%; in test [2] (Test 2, 0.01 μM) it was -3%. Besides, the inhibition at 0.05 µM in test [2] (Test 1, 0.05 μM) worked out at 0%; in test [2] (Test 2, 0.05 μM), 12%. The inhibition at 0.25 µM stood at 8.6% in test [2] (Test 1, 0.25 μM) and 25% in test [2] (Test 2, 0.25 μM). For the same compound, the Gain in test [4] (Test 2, control 7.5) is on record as 8.3 g/day. In addition, in test [4] (Test 2, control 19.3), the “Feed Intake” value came out at 21.2 g/day. The Weight in test [4] (Test 2, control 202.3) was 213.4 g. The “Carcass Composition % of Change over Control, Fat” value in test [4] (Test 2) worked out at 2.5%. Moreover, in test [4] (Test 2), the “Carcass Composition % of Change over Control, Protein” value was found to be 0.5%.
Take `CC(C)NCC(O)c1ccc(O)c(O)c1` (centres unmarked) [Isoproterenol]: the activation at 0.01 µM amounted to 40% in test [1] (Test 1, 0.01 μM); 175% in test [1] (Test 2, 0.01 μM); 45% in the test on Rat Adipose Tissue (Test 1, 0.01 μM); 49% in the test on Rat Adipose Tissue (Test 2, 0.01 μM); 670% in test [3] (Test 1, 0.01 μM); 600% in test [3] (Test 2, 0.01 μM). Besides, the activation at 0.05 µM in test [1] (Test 1, 0.05 μM) came out at 140%; in test [1] (Test 2, 0.05 μM) it was 196%; in the test on Rat Adipose Tissue (Test 1, 0.05 μM), 173%; with Rat Adipose Tissue (Test 2, 0.05 μM) it was 154%. The activation at 0.25 µM stood at 660% in test [1] (Test 1, 0.25 μM); 820% in test [1] (Test 2, 0.25 μM); 290% in the test on Rat Adipose Tissue (Test 1, 0.25 μM); 216% in the test with Rat Adipose Tissue (Test 2, 0.25 μM). Besides, the inhibition at 0.01 µM in test [2] (Test 1, 0.01 μM) was 29.1%; in test [2] (Test 2, 0.01 μM), 21%. The inhibition at 0.05 µM in test [2] (Test 1, 0.05 μM) stood at 48.6%; in test [2] (Test 2, 0.05 μM), 15%. Also, the inhibition at 0.25 µM in test [2] (Test 1, 0.25 μM) worked out at 70.3%; in test [2] (Test 2, 0.25 μM), 49%.
With `CC(C)(C)NCC(O)c1ccc(O)c(CO)n1` (centres unmarked) [VII, Pirbuterol], in test [4] (Test 1, control 7.3), the Gain amounted to 8.0 g/day. Further, the “Feed Intake” value in test [4] (Test 1, control 18.6) amounted to 19.8 g/day. The Weight in test [4] (Test 1, control 191.8) came out at 200.9 g. In addition, in test [4] (Test 1), the “Carcass Composition % of Change over Control, Fat” value is listed as -8.7% and the “Carcass Composition % of Change over Control, Protein” value was found to be 3.6%.
